Source: ChEMBL document CHEMBL4665919, “Novel Tricyclic Pyroglutamide Derivatives as Potent RORγt Inverse Agonists Identified using a Virtual Screening Approach” (ACS Med Chem Lett, 2020)

Assays:
[1] = target: T1, Oxysterols receptor LXR-alpha (Homo sapiens, UniProt Q13133); experiment: Inverse agonist activity at LXRalpha (unknown origin)
T1 sequence (Q13133 whole entry): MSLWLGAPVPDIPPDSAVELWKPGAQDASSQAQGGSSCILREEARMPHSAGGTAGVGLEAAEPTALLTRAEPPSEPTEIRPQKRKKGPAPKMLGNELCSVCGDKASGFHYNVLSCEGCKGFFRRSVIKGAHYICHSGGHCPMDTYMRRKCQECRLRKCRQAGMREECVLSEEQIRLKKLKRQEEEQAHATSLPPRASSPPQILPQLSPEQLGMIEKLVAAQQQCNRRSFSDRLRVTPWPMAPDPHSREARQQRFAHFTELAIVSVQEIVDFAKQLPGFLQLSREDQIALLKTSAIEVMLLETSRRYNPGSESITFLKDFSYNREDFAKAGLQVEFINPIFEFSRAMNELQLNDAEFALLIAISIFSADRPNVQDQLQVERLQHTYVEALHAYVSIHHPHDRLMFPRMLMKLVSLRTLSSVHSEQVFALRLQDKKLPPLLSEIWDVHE

[2] = target: T2, Nuclear receptor subfamily 1 group I member 2 (Homo sapiens, UniProt O75469); experiment: Inverse agonist activity at PXR (unknown origin)
T2 sequence (O75469 whole entry): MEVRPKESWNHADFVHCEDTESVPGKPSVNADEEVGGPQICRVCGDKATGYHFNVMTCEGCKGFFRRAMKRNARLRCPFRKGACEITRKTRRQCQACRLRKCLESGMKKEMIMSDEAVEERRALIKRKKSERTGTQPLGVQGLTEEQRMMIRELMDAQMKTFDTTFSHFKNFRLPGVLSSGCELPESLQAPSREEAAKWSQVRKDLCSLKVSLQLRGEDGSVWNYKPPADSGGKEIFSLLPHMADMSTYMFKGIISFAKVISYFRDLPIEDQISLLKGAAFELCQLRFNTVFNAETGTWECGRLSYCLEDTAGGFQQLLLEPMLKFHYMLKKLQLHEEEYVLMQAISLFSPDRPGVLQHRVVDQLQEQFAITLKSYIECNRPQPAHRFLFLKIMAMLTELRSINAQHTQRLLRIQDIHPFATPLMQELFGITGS

[3] = target: T3, Oxysterols receptor LXR-beta (Homo sapiens, UniProt P55055); experiment: Inverse agonist activity at LXRbeta (unknown origin)
T3 sequence (P55055 whole entry): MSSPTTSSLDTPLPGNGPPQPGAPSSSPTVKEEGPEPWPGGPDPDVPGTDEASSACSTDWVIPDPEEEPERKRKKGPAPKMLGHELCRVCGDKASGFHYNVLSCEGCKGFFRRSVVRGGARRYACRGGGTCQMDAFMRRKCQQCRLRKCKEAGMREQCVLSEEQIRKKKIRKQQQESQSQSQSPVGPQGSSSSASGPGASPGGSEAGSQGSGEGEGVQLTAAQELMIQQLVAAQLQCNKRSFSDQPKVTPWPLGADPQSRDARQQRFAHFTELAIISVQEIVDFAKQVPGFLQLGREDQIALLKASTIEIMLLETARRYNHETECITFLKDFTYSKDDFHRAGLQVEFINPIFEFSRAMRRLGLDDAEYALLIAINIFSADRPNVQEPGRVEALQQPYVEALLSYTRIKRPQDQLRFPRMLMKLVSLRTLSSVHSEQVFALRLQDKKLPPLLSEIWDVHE

[4] = AUC in BALB/c mouse at 2 mg/kg, iv; format: ADME, organism-based; design: dose 2 mg/kg; conditions: in vivo
[5] = target: Cytochrome P450 2D6 (Homo sapiens, UniProt P10635); experiment: Inhibition of CYP2D6 (unknown origin); format: ADME
[6] = AUC in BALB/c mouse at 4 mg/kg, po measured upto 72 hrs; format: ADME, organism-based; design: route oral, dose 4 mg/kg, time <=72; conditions: in vivo
[7] = Kinetic solubility of compound in acetate buffer at pH 4; format: physicochemical; conditions: read-out: Kinetic_solubility
[8] = Cmax in BALB/c mouse at 4 mg/kg, po; format: ADME, organism-based; design: route oral, dose 4 mg/kg; conditions: in vivo
[9] = target: Cytochrome P450 2C9 (Homo sapiens, UniProt P11712); experiment: Inhibition of CYP2C9 (unknown origin); format: ADME
[10] = Volume of distribution at steady state in BALB/c mouse at 2 mg/kg, iv; format: ADME, organism-based; conditions: in vivo, read-out: Vdss
[11] = Kinetic solubility of compound in acetate buffer at pH 6.5; format: physicochemical; conditions: read-out: Kinetic_solubility
[12] = target: T4, Nuclear receptor ROR-beta (Homo sapiens, UniProt Q92753); experiment: Inverse agonist activity at Gal4-fused RORbeta (unknown origin)
T4 sequence (Q92753 whole entry): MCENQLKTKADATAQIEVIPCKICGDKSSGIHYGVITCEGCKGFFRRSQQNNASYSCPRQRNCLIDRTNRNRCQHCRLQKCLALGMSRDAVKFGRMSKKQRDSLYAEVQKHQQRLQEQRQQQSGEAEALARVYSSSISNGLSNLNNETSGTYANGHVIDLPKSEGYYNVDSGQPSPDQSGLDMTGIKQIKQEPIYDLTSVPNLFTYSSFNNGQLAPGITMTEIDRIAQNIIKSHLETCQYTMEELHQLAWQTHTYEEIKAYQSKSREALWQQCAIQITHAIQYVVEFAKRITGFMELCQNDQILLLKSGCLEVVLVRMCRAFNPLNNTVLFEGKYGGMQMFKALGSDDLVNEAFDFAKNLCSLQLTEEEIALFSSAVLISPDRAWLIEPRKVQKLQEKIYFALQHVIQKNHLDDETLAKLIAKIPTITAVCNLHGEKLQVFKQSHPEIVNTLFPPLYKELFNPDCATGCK

[13] = Permeability across basolateral to apical side in human Caco2 cells; format: ADME, cell-based; conditions: Caco-2, read-out: permeability
[14] = Clearance in BALB/c mouse at 2 mg/kg, iv; format: ADME, organism-based; conditions: in vivo
[15] = Protein binding in human; format: ADME
[16] = AUC in BALB/c mouse at 4 mg/kg, po; format: ADME, organism-based; design: dose 4 mg/kg; conditions: in vivo
[17] = Permeability across apical to basolateral side in human Caco2 cells; format: ADME, cell-based; conditions: Caco-2, read-out: permeability
[18] = Half life in rat liver microsomes; format: ADME, Microsome
[19] = tested on: HepG2; experiment: Cytotoxicity against human HepG2 cells assessed as reduction in cell viability
[20] = target: Cytochrome P450 2C19 (Homo sapiens, UniProt P33261); experiment: Inhibition of CYP2C19 (unknown origin); format: ADME
[21] = Half life in BALB/c mouse at 2 mg/kg, iv; format: ADME, organism-based; conditions: in vivo
[22] = Tmax in BALB/c mouse at 4 mg/kg, po; format: ADME, organism-based; conditions: in vivo
[23] = Protein binding in mouse; format: ADME, organism-based; conditions: in vivo
[24] = Oral bioavailability in BALB/c mouse at 4 mg/kg; format: ADME, organism-based; conditions: in vivo
[25] = Half life in mouse liver microsomes; format: ADME, Microsome
[26] = AUC in BALB/c mouse at 2 mg/kg, iv measured upto 72 hrs; format: ADME, organism-based; design: route intravenous, dose 2 mg/kg, time <=72; conditions: in vivo
[27] = target: Cytochrome P450 3A4 (Homo sapiens, UniProt P08684); experiment: Inhibition of CYP3A4 (unknown origin); format: ADME
[28] = Drug concentration in BALB/c mouse at 4 mg/kg, po measured upto 24 hrs; format: ADME, organism-based; conditions: in vivo, read-out: Drug uptake

Sequence of Cytochrome P450 3A4 (P08684 whole entry): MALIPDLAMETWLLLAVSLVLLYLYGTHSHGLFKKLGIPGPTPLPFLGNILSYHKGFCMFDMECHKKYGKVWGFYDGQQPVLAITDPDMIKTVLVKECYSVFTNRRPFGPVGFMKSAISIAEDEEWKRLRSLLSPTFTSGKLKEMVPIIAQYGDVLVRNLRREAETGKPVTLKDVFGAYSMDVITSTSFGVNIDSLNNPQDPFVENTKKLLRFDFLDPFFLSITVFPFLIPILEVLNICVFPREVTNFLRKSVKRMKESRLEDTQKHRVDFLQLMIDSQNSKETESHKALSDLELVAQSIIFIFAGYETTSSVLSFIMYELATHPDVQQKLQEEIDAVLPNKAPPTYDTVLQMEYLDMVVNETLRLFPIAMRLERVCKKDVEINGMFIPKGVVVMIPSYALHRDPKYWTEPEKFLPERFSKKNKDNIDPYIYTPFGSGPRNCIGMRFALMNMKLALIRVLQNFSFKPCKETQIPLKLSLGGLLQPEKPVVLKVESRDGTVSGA
Sequence of Cytochrome P450 2C19 (P33261 whole entry): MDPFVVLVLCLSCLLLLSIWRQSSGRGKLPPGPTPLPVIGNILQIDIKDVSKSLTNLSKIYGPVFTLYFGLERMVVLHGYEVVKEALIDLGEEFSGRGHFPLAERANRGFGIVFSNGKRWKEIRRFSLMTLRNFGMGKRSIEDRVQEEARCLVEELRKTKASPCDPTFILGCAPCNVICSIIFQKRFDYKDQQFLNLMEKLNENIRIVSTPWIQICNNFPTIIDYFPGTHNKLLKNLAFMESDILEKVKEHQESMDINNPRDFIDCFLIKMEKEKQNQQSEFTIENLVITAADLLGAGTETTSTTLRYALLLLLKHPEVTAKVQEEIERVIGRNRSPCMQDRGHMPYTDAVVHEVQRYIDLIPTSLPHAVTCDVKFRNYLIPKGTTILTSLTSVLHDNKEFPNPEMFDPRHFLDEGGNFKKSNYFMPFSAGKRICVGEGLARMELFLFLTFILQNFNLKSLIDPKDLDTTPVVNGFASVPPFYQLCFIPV
Sequence of Cytochrome P450 2D6 (P10635 whole entry): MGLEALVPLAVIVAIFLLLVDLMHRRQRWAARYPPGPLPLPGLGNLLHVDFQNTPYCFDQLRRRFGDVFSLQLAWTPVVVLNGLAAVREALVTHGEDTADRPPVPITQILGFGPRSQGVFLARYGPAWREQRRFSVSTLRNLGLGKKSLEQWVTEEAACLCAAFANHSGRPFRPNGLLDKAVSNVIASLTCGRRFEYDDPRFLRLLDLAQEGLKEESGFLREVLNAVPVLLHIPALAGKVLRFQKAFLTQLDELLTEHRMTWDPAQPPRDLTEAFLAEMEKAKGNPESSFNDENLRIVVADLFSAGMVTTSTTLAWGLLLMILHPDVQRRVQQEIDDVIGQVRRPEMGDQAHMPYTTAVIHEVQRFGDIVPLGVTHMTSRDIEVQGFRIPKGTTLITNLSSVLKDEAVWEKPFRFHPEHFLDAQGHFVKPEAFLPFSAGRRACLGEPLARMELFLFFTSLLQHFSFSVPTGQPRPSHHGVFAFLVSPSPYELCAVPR
Sequence of Cytochrome P450 2C9 (P11712 whole entry): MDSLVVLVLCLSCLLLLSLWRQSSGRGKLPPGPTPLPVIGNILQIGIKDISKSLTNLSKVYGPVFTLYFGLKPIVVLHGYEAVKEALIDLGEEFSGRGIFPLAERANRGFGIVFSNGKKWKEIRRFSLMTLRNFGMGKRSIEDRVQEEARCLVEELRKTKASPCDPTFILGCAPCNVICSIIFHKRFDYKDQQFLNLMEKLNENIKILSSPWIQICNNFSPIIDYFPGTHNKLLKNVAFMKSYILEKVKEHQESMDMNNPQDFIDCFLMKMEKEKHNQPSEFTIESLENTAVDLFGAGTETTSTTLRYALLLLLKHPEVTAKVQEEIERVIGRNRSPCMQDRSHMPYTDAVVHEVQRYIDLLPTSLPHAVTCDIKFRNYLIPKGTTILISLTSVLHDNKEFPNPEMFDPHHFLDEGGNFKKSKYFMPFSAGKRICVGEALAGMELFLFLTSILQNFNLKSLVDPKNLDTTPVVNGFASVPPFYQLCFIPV

EC50 [1]: > 7.5 µM
EC50 [2]: > 50 µM
EC50 [3]: > 7.5 µM
AUC [4]: 23.7 µM·h
IC50 [5]: > 20 µM
AUC at 72 h [6]: 43.9 µM·h
solubility kinetic [7]: < 1 µg/mL
Cmax [8]: 2200 nM
IC50 [9]: 4.9 µM
Vd [10]: 2.7 L/kg
solubility kinetic [11]: < 1 µg/mL
EC50 [12]: 8.4 µM
Papp B→A [13]: 19 ×10⁻⁶ cm/s
clearance [14]: 2 mL/min/kg
fraction unbound [15]: 0.025
AUC [16]: 44.4 µM·h
Papp A→B [17]: 9.3 ×10⁻⁶ cm/s
half-life [18]: > 2 h
IC50 [20]: > 20 µM
half-life [21]: 15 h
Tmax [22]: 4.3 h
fraction unbound [23]: 1.3%
bioavailability [24]: 94%
half-life [25]: > 2 h
AUC at 72 h [26]: 23 µM·h
IC50 [27]: > 20 µM
concentration at 24 h [28]: 620 nM
SMILES: CC(C)(O)CN1C(=O)[C@H](F)C[C@H]1C(=O)N1CC[C@@]2(S(=O)(=O)c3ccc(F)cc3)c3ccc(C(F)(C(F)(F)F)C(F)(F)F)cc3CC[C@@H]12
EC50 [19]: > 100 µM
